For 31 compounds, MIC results are on record in patent US20060148730A1, “Method of treating tuberculosis” (priority 2003, published 2006).

Each structure is given as a SMILES string. Values after ≈ are worked out from the molar mass of the structure shown. Bounds are passed on as bounds.

The first assay deals with M. tuberculosis H37Rv. Nature of the assay: MIC vs. M. tuberculosis H37Rv, microplate Alamar Blue assay (MABA). Type of assay: cell-based. Conditions: Mycobacterium tuberculosis, H37RV, Table 4; read-out: MIC. (Alamar Blue is a resazurin reagent that responds to reducing activity.)
On to `CC[C@H]1OC(=O)[C@H](C)[C@@H](O[C@H]2CC(C)(OC)[C@@H](O)[C@H](C)O2)[C@H](C)[C@@H](O[C@@H]2O[C@H](C)C[C@H](N(C)C)[C@H]2O)[C@](C)(OC)C[C@@H](C)C(=O)[C@H](C)[C@H]2N(CC/C=C\c3ccccc3)C(=O)O[C@]12C` (stereo partly shown) [ITR0020], for which the MIC (commonly the smallest concentration in the dilution series that meets the test's criterion for growth inhibition) is 6.6 µM (≈ 5.96 µg/mL). `CC[C@H]1OC(=O)[C@H](C)C(O[C@H]2CC(C)(OC)[C@@H](OC(=O)Nc3ccccc3)[C@H](C)O2)[C@H](C)[C@@H](O[C@@H]2O[C@H](C)C[C@H](N(C)C)[C@H]2O)[C@](C)(OC)C[C@@H](C)C(=O)[C@H](C)[C@@H](O)[C@]1(C)O` (stereo partly shown) [Compound 1SH63]: the minimal inhibitory concentration (MIC) was 16 µM (≈ 13.9 µg/mL). `CC[C@H]1OC(=O)[C@H](C)[C@@H](OC2CC(C)(OC)C(O)C(C)O2)[C@H](C)[C@@H](OC2OC(C)CC(N(C)C)C2OC(=O)Nc2ccccc2)[C@](C)(OC)C[C@@H](C)C(=O)[C@H](C)[C@@H](O)[C@]1(C)O` (stereo partly shown) [Compound 3ZZ19]: the MIC stood at 12 µM (≈ 10.4 µg/mL).

The same assay, now with this note: Mycobacterium tuberculosis, H37RV, Table 5; read-out: MIC.
For the compound `CC[C@H]1OC(=O)[C@H](C)[C@@H](O)[C@H](C)[C@@H](OC2OC(C)CC(N(C)C)C2OC(=O)Nc2ccccc2)[C@](C)(OC)C/C(C)=C2/O[C@@]1(C)C=C2C` (stereo partly shown) [Compound 1GYG9], the MIC came out at 16 µM (≈ 10.8 µg/mL).

The same assay, now with this note: Table 1a, 11,12-carbamate derivatives; anti-TB activity; read-out: MIC.
For `CC[C@H]1OC(=O)[C@H](C)C(=O)[C@H](C)[C@@H](O[C@@H]2O[C@H](C)C[C@H](N(C)C)[C@H]2O)[C@](C)(OC)C[C@@H](C)C(=O)[C@H](C)[C@H]2N(NCCc3ccccc3)C(=O)O[C@]12C` [RU70645], the MIC turned out to be 14 µM (≈ 10.2 µg/mL).

Still in this assay, the particulars now being: Table 2a, 11,12-diols; anti-TB activity; read-out: MIC.
As to `CC[C@H]1OC(=O)[C@H](C)C(=O)[C@H](C)[C@@H](O[C@@H]2O[C@H](C)C[C@H](N(C)C)[C@H]2O)[C@](C)(OC)C[C@@H](C)C(=NOCOCCOC)[C@H](C)[C@@H](O)[C@]1(C)O` [RU54615], the MIC is on record as above 128 µM.

The assay is the same for the next values; noted with them: Table 3; parallel-synthesis carbazate library products, SPE purified; read-out: MIC.
In the case of `CC[C@H]1OC(=O)[C@H](C)[C@@H](O[C@H]2CC(C)(OC)[C@@H](O)[C@H](C)O2)[C@H](C)[C@@H](O[C@@H]2O[C@H](C)C[C@H](N(C)C)[C@H]2O)[C@](C)(OC)C[C@@H](C)C(=O)[C@H](C)[C@H]2N(NCc3ccoc3)C(=O)O[C@]12C` (stereo partly shown) [A10′], the MIC is on record as above 7 µM.

Take `CC[C@H]1OC(=O)[C@H](C)[C@@H](O[C@H]2CC(C)(OC)[C@@H](O)[C@H](C)O2)[C@H](C)[C@@H](O[C@@H]2O[C@H](C)C[C@H](N(C)C)[C@H]2O)[C@](C)(OC)C[C@@H](C)C(=O)[C@H](C)[C@H]2N(NCc3[nH]ncc3Br)C(=O)O[C@]12C` (stereo partly shown) [D1′]: the MIC came out at 23 µM (≈ 21.8 µg/mL). Regarding `CC[C@H]1OC(=O)[C@H](C)[C@@H](O[C@H]2CC(C)(OC)[C@@H](O)[C@H](C)O2)[C@H](C)[C@@H](O[C@@H]2O[C@H](C)C[C@H](N(C)C)[C@H]2O)[C@](C)(OC)C[C@@H](C)C(=O)[C@H](C)[C@H]2N(NCc3c(C)[nH]c4ccc([N+](=O)[O-])cc34)C(=O)O[C@]12C` (stereo partly shown) [B11′], the MIC is recorded as above 22 µM. On to `CC[C@H]1OC(=O)[C@H](C)[C@@H](O[C@H]2CC(C)(OC)[C@@H](O)[C@H](C)O2)[C@H](C)[C@@H](O[C@@H]2O[C@H](C)C[C@H](N(C)C)[C@H]2O)[C@](C)(OC)C[C@@H](C)C(=O)[C@H](C)[C@H]2N(NCc3cn(Cc4ccccc4)c4ccccc34)C(=O)O[C@]12C` (stereo partly shown) [C2′], for which the MIC amounted to 7 µM (≈ 7.05 µg/mL).

With `CC[C@H]1OC(=O)[C@H](C)[C@@H](O[C@H]2CC(C)(OC)[C@@H](O)[C@H](C)O2)[C@H](C)[C@@H](O[C@@H]2O[C@H](C)C[C@H](N(C)C)[C@H]2O)[C@](C)(OC)C[C@@H](C)C(=O)[C@H](C)[C@H]2N(NCc3nc4ccccc4s3)C(=O)O[C@]12C` (stereo partly shown) [F7′], the MIC is 16 µM (≈ 15 µg/mL). Turning to `CC[C@H]1OC(=O)[C@H](C)[C@@H](O[C@H]2CC(C)(OC)[C@@H](O)[C@H](C)O2)[C@H](C)[C@@H](O[C@@H]2O[C@H](C)C[C@H](N(C)C)[C@H]2O)[C@](C)(OC)C[C@@H](C)C(=O)[C@H](C)[C@H]2N(NCc3cccnc3)C(=O)O[C@]12C` (stereo partly shown) [D9′], the MIC was above 15 µM.

For the compound `CC[C@H]1OC(=O)[C@H](C)[C@@H](O[C@H]2CC(C)(OC)[C@@H](O)[C@H](C)O2)[C@H](C)[C@@H](O[C@@H]2O[C@H](C)C[C@H](N(C)C)[C@H]2O)[C@](C)(OC)C[C@@H](C)C(=O)[C@H](C)[C@H]2N(NCc3ccc(N4CCC(c5ccccc5OC)CC4)c([N+](=O)[O-])c3)C(=O)O[C@]12C` (stereo partly shown) [G12′], the MIC is recorded as 19 µM (≈ 21.1 µg/mL). The same measure, in the same setting: as for `CC[C@H]1OC(=O)[C@H](C)[C@@H](O[C@H]2CC(C)(OC)[C@@H](O)[C@H](C)O2)[C@H](C)[C@@H](O[C@@H]2O[C@H](C)C[C@H](N(C)C)[C@H]2O)[C@](C)(OC)C[C@@H](C)C(=O)[C@H](C)[C@H]2N(NCc3cnccc3NC(=O)C(C)(C)C)C(=O)O[C@]12C` (stereo partly shown) [E2′], the figure is above 27 µM; as for `CC[C@H]1OC(=O)[C@H](C)[C@@H](O[C@H]2CC(C)(OC)[C@@H](O)[C@H](C)O2)[C@H](C)[C@@H](O[C@@H]2O[C@H](C)C[C@H](N(C)C)[C@H]2O)[C@](C)(OC)C[C@@H](C)C(=O)[C@H](C)[C@H]2N(NCc3c(Cl)cccc3Cl)C(=O)O[C@]12C` (stereo partly shown) [H1′], 11 µM (≈ 10.4 µg/mL). Consider `CC[C@H]1OC(=O)[C@H](C)[C@@H](O[C@H]2CC(C)(OC)[C@@H](O)[C@H](C)O2)[C@H](C)[C@@H](O[C@@H]2O[C@H](C)C[C@H](N(C)C)[C@H]2O)[C@](C)(OC)C[C@@H](C)C(=O)[C@H](C)[C@H]2N(NCc3sc(C)nc3C)C(=O)O[C@]12C` (stereo partly shown) [F5′], for which the MIC is given as above 19 µM. In the case of `CC[C@H]1OC(=O)[C@H](C)[C@@H](O[C@H]2CC(C)(OC)[C@@H](O)[C@H](C)O2)[C@H](C)[C@@H](O[C@@H]2O[C@H](C)C[C@H](N(C)C)[C@H]2O)[C@](C)(OC)C[C@@H](C)C(=O)[C@H](C)[C@H]2N(NC/C=C/c3ccccc3)C(=O)O[C@]12C` (stereo partly shown) [A4′], the MIC came out at 7 µM (≈ 6.33 µg/mL). Take `CC[C@H]1OC(=O)[C@H](C)[C@@H](O[C@H]2CC(C)(OC)[C@@H](O)[C@H](C)O2)[C@H](C)[C@@H](O[C@@H]2O[C@H](C)C[C@H](N(C)C)[C@H]2O)[C@](C)(OC)C[C@@H](C)C(=O)[C@H](C)[C@H]2N(NCc3c(Sc4ccc(Cl)cc4)nc4sccn34)C(=O)O[C@]12C` (stereo partly shown) [H11′]: the MIC is on record as 35.4 µM (≈ 37.8 µg/mL). Consider `CC[C@H]1OC(=O)[C@H](C)[C@@H](O[C@H]2CC(C)(OC)[C@@H](O)[C@H](C)O2)[C@H](C)[C@@H](O[C@@H]2O[C@H](C)C[C@H](N(C)C)[C@H]2O)[C@](C)(OC)C[C@@H](C)C(=O)[C@H](C)[C@H]2N(NCc3sccc3Oc3ccccc3)C(=O)O[C@]12C` (stereo partly shown) [G4′], for which the MIC is reported as 13 µM (≈ 12.7 µg/mL). As for `CC[C@H]1OC(=O)[C@H](C)[C@@H](O[C@H]2CC(C)(OC)[C@@H](O)[C@H](C)O2)[C@H](C)[C@@H](O[C@@H]2O[C@H](C)C[C@H](N(C)C)[C@H]2O)[C@](C)(OC)C[C@@H](C)C(=O)[C@H](C)[C@H]2N(NCc3cccc4nsnc34)C(=O)O[C@]12C` (stereo partly shown) [H3′], the MIC is listed as above 22 µM. Regarding `CCCCc1nc(CNN2C(=O)O[C@]3(C)[C@@H](CC)OC(=O)[C@H](C)[C@@H](O[C@H]4CC(C)(OC)[C@@H](O)[C@H](C)O4)[C@H](C)[C@@H](O[C@@H]4O[C@H](C)C[C@H](N(C)C)[C@H]4O)[C@](C)(OC)C[C@@H](C)C(=O)[C@H](C)[C@@H]23)c(Cl)[nH]1` (stereo partly shown) [B7′], the MIC was above 19 µM. Take `CC[C@H]1OC(=O)[C@H](C)[C@@H](O[C@H]2CC(C)(OC)[C@@H](O)[C@H](C)O2)[C@H](C)[C@@H](O[C@@H]2O[C@H](C)C[C@H](N(C)C)[C@H]2O)[C@](C)(OC)C[C@@H](C)C(=O)[C@H](C)[C@H]2N(NCc3ccc4c(c3)nnn4C)C(=O)O[C@]12C` (stereo partly shown) [H7′]: the MIC is listed as above 22 µM.

`CC[C@H]1OC(=O)[C@H](C)[C@@H](O[C@H]2CC(C)(OC)[C@@H](O)[C@H](C)O2)[C@H](C)[C@@H](O[C@@H]2O[C@H](C)C[C@H](N(C)C)[C@H]2O)[C@](C)(OC)C[C@@H](C)C(=O)[C@H](C)[C@H]2N(NCc3cn(S(=O)(=O)c4ccc(C)cc4)c4ccccc34)C(=O)O[C@]12C` (stereo partly shown) [C4′]: the MIC was 11 µM (≈ 11.8 µg/mL). Consider `CC[C@H]1OC(=O)[C@H](C)[C@@H](O[C@H]2CC(C)(OC)[C@@H](O)[C@H](C)O2)[C@H](C)[C@@H](O[C@@H]2O[C@H](C)C[C@H](N(C)C)[C@H]2O)[C@](C)(OC)C[C@@H](C)C(=O)[C@H](C)[C@H]2N(NCC3CSN=N3)C(=O)O[C@]12C` (stereo partly shown) [G10′], for which the MIC is given as above 16 µM. As for `CC[C@H]1OC(=O)[C@H](C)[C@@H](O[C@H]2CC(C)(OC)[C@@H](O)[C@H](C)O2)[C@H](C)[C@@H](O[C@@H]2O[C@H](C)C[C@H](N(C)C)[C@H]2O)[C@](C)(OC)C[C@@H](C)C(=O)[C@H](C)[C@H]2N(NCc3c[nH]nc3-c3ccc(F)cc3)C(=O)O[C@]12C` (stereo partly shown) [D5′], the minimum inhibitory concentration (MIC) worked out at 25 µM (≈ 24.1 µg/mL).

With `CC[C@H]1OC(=O)[C@H](C)[C@@H](O[C@H]2CC(C)(OC)[C@@H](O)[C@H](C)O2)[C@H](C)[C@@H](O[C@@H]2O[C@H](C)C[C@H](N(C)C)[C@H]2O)[C@](C)(OC)C[C@@H](C)C(=O)[C@H](C)[C@H]2N(/N=C/c3c(C)noc3-c3ccccc3)C(=O)O[C@]12C` (stereo partly shown) [C12′], the minimum inhibitory concentration (MIC) is recorded as 9 µM (≈ 8.61 µg/mL).

The assay is the same for the next values; noted with them: Table 4; read-out: MIC.
Turning to `CCC1OC(=O)C(C)C(OC2CC(C)(OC)C(O)C(C)O2)C(C)C(OC2OC(C)CC(N(C)C)C2O)C(C)(OC)CC(C)C(=NOCCC2OCCO2)C(C)C(O)C1(C)O` (stereo not shown) [Compound 1GY11], the MIC is recorded as 29.5 µM (≈ 25.5 µg/mL).

The same assay, now with this note: Table 5; read-out: MIC.
As to `CCC1OC(=O)C(C)C(O)C(C)C(OC2OC(C)CC([N+](C)(C)Cc3ccccc3)C2OCc2ccccc2)C(C)(OC)CC(C)C(=NOCc2ccccc2)C(C)C(O)C1(C)O` (stereo not shown) [Compound 2GY11], the MIC is given as 7.1 µM.

Take `CCC1OC(=O)C(C)C(OC2CC(C)(OC)C(O)C(C)O2)C(C)C(OC2OC(C)CC(N(C)C)C2O)C(C)(O)CC(C)C(=NN=Cc2ccc(SC)cc2)C(C)C(O)C1(C)O` (stereo not shown) [Compound 1OK121]: the minimum inhibitory concentration (MIC) stood at 12 µM (≈ 10.6 µg/mL). On the same count and under the same terms, next, `CCC1OC(=O)C(C)C(OC2CC(C)(OC)C(O)C(C)O2)C(C)C(OC2OC(C)CC(N(C)C)C2OC(=S)Nc2ccccc2)C(C)(O)CC(C)C(=NOCOCCOC)C(C)C(O)C1(C)O` (stereo not shown) [Compound 3ZZ59b]: 5.6 µM (≈ 5.44 µg/mL).

Turning to `CC[C@H]1OC(=O)[C@H](C)[C@@H](O)[C@H](C)[C@@H](O[C@@H]2O[C@H](C)C[C@H](N(C)C)[C@H]2O)[C@](C)(OC)C[C@@H](C)C(=NOCCCc2ccccc2)[C@H](C)[C@@H](O)[C@]1(C)O` [Compound 2GY15], the MIC turned out to be 6.3 µM (≈ 4.55 µg/mL).
